What follows are compounds tested against T1, Human GLP-1 receptor (Homo sapiens, UniProt P43220) (assay: Measurement of GLP-1 receptor agonist activity (cAMP assay in hGLP-1R/CHO-K1 cells)). Conditions: CHO-K1; maximum effect; cAMP with 2 nM human GLP-1 (7-36) = 100%, DMSO only = 0%.
T1 construct: expressed in transfected cells; host or cells: CHO-K1
Assay type: cell-based
Protocol: Human GLP-1 receptor stably expressing cells (hGLP-1R/CHO-K1 cells) are cultured in an α-MEM medium (Sigma) containing 10% FBS (Hyclone), 2% GlutaMAX (Gibco), 1% G418 (Nacalai Tesque), and 1% Penicillin-Streptomycin Mixed Solution (Sigma) at 37° C. under 5% CO2 conditions, and recovered by treating a 10 fold diluted 5.0 g/1-trypsin/5.3 mmol/1-EDTA solution (Nacalai Tesque) and cryopreserved.
A DMSO solution containing the compound of the present invention or human GLP-1 (7-36) (Phoenix Pharmaceuticals) is dispensed into a 384-well microplate (Greiner) at 62.5 nL/well, and in addition, 400 μM Forskolin (Nacalai Tesque) is dispensed therein at 7.5 nL/well. Subsequently, the frozen GLP-1 R/CHO-K1 cells are thawed in a thermostatic bath at 37° C., suspended in HBSS buffer (GIBCO) containing 0.1% BSA (Sigma), 20 mM HEPES, 0.1 mM IBMX (Sigma), and 0.2 mM RO20-1724 (Calbiochem) at 2×10^4 cells/mL, and the cell suspension is added at 6 μL/well. The solution was incubated at 37° C. for 1 hour and intracellular cAMP concentration is measured using cAMP Gs dynamic kit (Cisbio) according to the protocol attached to the product. Specifically, a cAMP-d2/Anti-cAMP-Cryptate (1/1) mixture solution is added in a total amount of 6 μL/well, and is incubated at room temperature for 1 hour, and then, time-resolved fluorescence is measured using PHERAstar (BMG Labtech).
Assuming that the cAMP concentration when human GLP-1 (7-36) is dispensed to a final concentration of 2 nM is 100% and the cAMP concentration when only DMSO is dispensed is 0%, the 50% effective concentration (EC50) and the maximum effect (Emax) of the compound of the present invention are calculated using an increase in the cAMP concentration as an index, using TIBCO Spotfire (TIBCO Software). The dilution concentration or the dilution solvent are changed as necessary.
The compounds of the present invention were tested essentially as described above.

T1 sequence (P43220 24-463): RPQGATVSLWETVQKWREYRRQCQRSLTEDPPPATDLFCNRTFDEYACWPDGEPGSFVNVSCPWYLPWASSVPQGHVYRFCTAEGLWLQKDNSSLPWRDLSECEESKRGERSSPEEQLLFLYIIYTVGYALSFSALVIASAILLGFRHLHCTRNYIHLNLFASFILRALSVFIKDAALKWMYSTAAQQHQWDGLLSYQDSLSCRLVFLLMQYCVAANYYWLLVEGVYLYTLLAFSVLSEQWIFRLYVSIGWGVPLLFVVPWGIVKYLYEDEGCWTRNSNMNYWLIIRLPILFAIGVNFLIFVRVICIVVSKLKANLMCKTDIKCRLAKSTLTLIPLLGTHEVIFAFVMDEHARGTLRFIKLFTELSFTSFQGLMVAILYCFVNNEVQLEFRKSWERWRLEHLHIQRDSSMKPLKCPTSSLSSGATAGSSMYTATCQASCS

Row | Structure (SMILES) | Emax
1 | CN(CCc1cnc(OCc2ccc(Cl)cc2F)c(C(F)(F)F)c1)Cc1nc2ccc(C(=O)O)cc2n1C[C@@H]1CCO1 [Compound I-002] | 52%
2 | O=C(O)c1ccc2nc(CNCc3ccc(C(F)(F)F)c(OCc4ccc(Cl)cc4F)n3)n(C[C@@H]3CCO3)c2c1 [Compound I-006] | 55%

Now from value to compound:

Row | Emax | Structure (SMILES)
3 | 65.3% | CC(NCc1nc2ccc(C(=O)O)cc2n1C[C@@H]1CCO1)c1nc(OCc2ccc(Cl)cc2F)c(C(F)(F)F)cc1F (mixture of isomers) [Compound I-003]
4 | 60% | CC(NCc1nc2ccc(C(=O)O)cc2n1C[C@@H]1CCO1)c1ccc(C(F)(F)F)c(OCc2ccc(Cl)cc2F)n1 (mixture of isomers) [Compound I-004]
5 | 74.7% | CC(c1ccc(C(F)(F)F)c(OCc2ccc(Cl)cc2F)n1)N(C)Cc1nc2ccc(C(=O)O)cc2n1C[C@@H]1CCO1 (stereo partly shown) [Compound I-005]

Same assay, conditions: cAMP increase in hGLP-1R/CHO-K1 cells, 1 hour at 37° C., with Forskolin

Row | Structure (SMILES) | EC50
6 | CN(CCc1cnc(OCc2ccc(Cl)cc2F)c(C(F)(F)F)c1)Cc1nc2ccc(C(=O)O)cc2n1C[C@@H]1CCO1 [Compound I-002] | 2300 nM
7 | O=C(O)c1ccc2nc(CNCc3ccc(C(F)(F)F)c(OCc4ccc(Cl)cc4F)n3)n(C[C@@H]3CCO3)c2c1 [Compound I-006] | 2830 nM

These reach a lower EC50. Values come first.

Row | EC50 | Structure (SMILES)
8 | 354 nM | CC(NCc1nc2ccc(C(=O)O)cc2n1C[C@@H]1CCO1)c1nc(OCc2ccc(Cl)cc2F)c(C(F)(F)F)cc1F (mixture of isomers) [Compound I-003]
9 | 1060 nM | CC(NCc1nc2ccc(C(=O)O)cc2n1C[C@@H]1CCO1)c1ccc(C(F)(F)F)c(OCc2ccc(Cl)cc2F)n1 (mixture of isomers) [Compound I-004]
10 | 86 nM | CC(c1ccc(C(F)(F)F)c(OCc2ccc(Cl)cc2F)n1)N(C)Cc1nc2ccc(C(=O)O)cc2n1C[C@@H]1CCO1 (stereo partly shown) [Compound I-005]
